Here are results for three compounds from patent publication US20100278983A1, “COMPOSITION OF MONASCUS FERMENTED PRODUCT WITH A FUNCTION THAT REDUCES BODY FATNESS FORMATION AND THE METHOD FOR MANUFACTURING THE SAME” (SUNWAY BIOTECH CO., LTD., priority 2009, published 2010).

In assay [1] the test system is 3T3-L1 preadipocyte. The assay can be described thus: Differentiation rate of 3T3-L1 preadipocyte (content of triglyceride, TG). The following applies: Mus musculus; for inhibition at 125 µg/mL: 0.125 mg/mL. The class given is cell-based. The protocol: (§1) 3T3-L1 preadipocyte is used as the experimental material in the in vitro cellular experiments to probe into the effects of Monascus fermented product on proliferation and differentiation in preadipocyte.
In this research, 50, 100 and 200 μg/mL of water extracts of red mold rice and red mold dioscorea are added to 3T3-L1 preadipocyte respectively during differentiation induction and then the cells are collected to be analyzed the content of triglyceride after 8 days of differentiation. TG synthesis is an indicator for the differentiation late phase of the fat cells, thus the TG content in cells are usually used to determine the differentiation rate.

For assay [2], the system named is 3T3-L1 preadipocyte. The assay is described as follows: Proliferation rate of 3T3-L1 preadipocyte. It is filed as cell-based. The settings on record: for decrease of proliferation rate of 3T3-L1 preadipocyte: 24 hours.
Text: as §1

The nature of assay [3]: Body weight of rats fed with high-fat diet and Monascus fermented product. The class given is in vivo, male Wister rats. The following applies: after 6 weeks of feeding, dosage not stated. The source says:
In order to estimate the effects of Monascus fermented product on the decrease in body fat mass development and body weight-lowering, the present invention carried out in vitro cellular experiments and in vivo experiments. 3T3-L1 preadipocyte is used as the experimental material in the in vitro cellular experiments to probe into the effects of Monascus fermented product on proliferation and differentiation in preadipocyte. Male Wister rates are used as the experimental animals in the in vivo experiments and fed with high-fat diet and Monascus fermented products at the same time, then determine the effects of the decrease in body fat mass development by many evaluation indicators after […] of breeding.
Rats are randomly divided into to 9 groups, each include 8 rats, on the principles that the initial average weights of rats are unanimous. Rats are fed with high-fat diet and Monascus fermented product at the same time in experiments and then sacrificed for every analyses after 6 weeks of feeding. […]

Take `C/C=C/C1=CC2=C(CO1)C(=O)[C@]1(C)OC(=O)[C@H](C(=O)CCCCC)[C@H]1C2` [monascin]: the inhibition (commonly the percentage by which the read-out fell short of the control) at 125 µg/mL with 3T3-L1 preadipocyte [1] worked out at 31.2%. The compound also had an inhibition at 1000 µg/mL with 3T3-L1 preadipocyte [2] (Mus musculus, 3T3-L1, 1 mg/mL, 72 hours) of 8%.

`CC[C@H](C)C(=O)O[C@H]1C[C@@H](C)C=C2C=C[C@H](C)[C@H](CC[C@@H]3C[C@@H](O)CC(=O)O3)[C@H]21` [Monacolin K]: the “Final body weight” value in assay [3] amounted to 472.4 g. Besides, the “Increment of body weight” value in assay [3] was determined as 141.1 g. The “decrease of proliferation rate of 3T3-L1 preadipocyte” value in the assay on 3T3-L1 preadipocyte [2] (1.25 μg/mL) is reported as 13.0%; in the assay with 3T3-L1 preadipocyte [2] (2.5 μg/mL) it was 18.2%; in the assay on 3T3-L1 preadipocyte [2] (5 μg/mL), 23.9%; with 3T3-L1 preadipocyte [2] (10 μg/mL) it was 28.6%.

On to `C/C=C/C1=CC2=C(CO1)C(=O)[C@]1(C)OC(=O)[C@H](C(=O)CCCCCCC)[C@H]1C2` [ankaflavin], for which, in the assay with 3T3-L1 preadipocyte [1], 125 µg/mL produced 41.2% inhibition. The same compound gave an inhibition at 250 µg/mL with 3T3-L1 preadipocyte [1] (0.25 mg/mL) of 29.9%.
